Data taken from US5112818A, “2-(2-cyclopropylpyrrolidin-4-ylthio)carbapenhem derivatives” (Banyu Pharmaceutical Co., Ltd., priority 1989, dated 1992).
≈ marks a conversion by molar mass, not a printed value. Where two headings read alike, the source gives them in different places. Blank lines part the entries; values can stand above or below the compound they belong to.

Columns and labels:
[1] = system: gram positive bacteria and gram negative bacteria; conditions: in words, cited from earlier work
renal dehydropeptidase I = conditions: cited from earlier work
[2] = in words; background art; cited from earlier work
[3] = in words; cited from earlier work
DHP-I [4] = system: DHP-I
Excerpt: (§2) The DHP-I susceptibility was quantitatively analyzed by the method by Kropp et al., Antimicrob.,- Agents Chemother., vol. 22, p. 62-70 (1982), whereby the smaller the numerical value representing the ratio to imipenem (=1.0), the higher the stability.

[5] = system: methicillin resistant Staphylococcus aureus; conditions: in words; background art; cited from earlier work
Meth-R. S. aureus = assay: relative antibacterial potency, disc diffusion test (Bauer et al.); assay type: cell-based; conditions: ratio to thienamycin (=1.0); larger value = higher activity
Method: The compounds of the present invention show strong antibacterial activities against various gram positive bacteria and gram negative bacteria. As representative examples, the antibacterial activities of the compounds of the present invention described in the Examples, were measured by a disc diffusion test by the method of Bauer et al. (Amer. J. Clin. Pathol., vol. 45, p. 493 (1966)). Thienamycin or imipenem was used as the internal standard.
MIC of each test compound was calculated from the diameter of the inhibition ring formed by the disc containing the test compound by using the calculation formula reported by Humphrey and Lightbown (J. Gen. Microbiol., vol. 7, p. 129 (1952)). For each microorganism, a geometrical average of MIC was obtained, and the activity ratio to thienamycin was calculated.
The antibacterial activities are represented by the ratio to thienamycin (=1.0), whereby the larger the numerical value, the higher the activities.

S. aureus MB4970 = assay: in vitro antibacterial activity, agar plate dilution method (MIC); assay type: cell-based; conditions: Staphylococcus aureus, 10^6 CFU/ml, 37° C., 16 hours
Method: (§1) One platinum loopful of each test microorganism incubated overnight in Mueller Hinton broth, was inoculated to Mueller Hinton agara (inoculum size: 10^6 CFU/ml). Such culture media contained antibacterial agents in various concentrations. After incubation at 37° C. for 16 hours, the minimum inhibitory concentrations (MIC: μg/ml) were measured.

S. aureus 209P NIHJ JC1 = assay: as above; assay type: cell-based; conditions: Staphylococcus aureus, 10^6 CFU/ml, 37° C., 16 hours
Method: as §1

S. aureus JS1 = assay: as above; assay type: cell-based; conditions: Staphylococcus aureus; 10^6 CFU/ml; 37° C., 16 hours; S. aureus JS1, lactamase producing microorganism
Method: as §1

[6] = system: imipenem resistant Pseudomonas aeruginosa; conditions: in words; clinical field; cited from earlier work
[7] = system: highly methicillin resistant Staphylococcus aureus; conditions: in words; clinical field; cited from earlier work
β-lactamase = conditions: in words; cited from earlier work
kidney = conditions: in words; due to the decomposition products; cited from earlier work
DHP-I [8] = assay: DHP-I susceptibility (method by Kropp et al.); conditions: ratio to imipenem (=1.0); smaller value = higher stability
Excerpt: as §2

SMILES: C[C@@H](O)[C@H]1C(=O)N2C(C(=O)O)=C(SCCN)C[C@H]12 [thienamycin]
antibacterial activities ([1]; gram positive and gram negative bacteria): strong antibacterial activities over a wide range against gram positive bacteria and gram negative bacteria
decomposition by / stability against DHP-I (renal dehydropeptidase I; in words, background art): likely to be decomposed by a certain enzyme in vivo such as renal dehydropeptidase I
chemical stability [2]: chemically unstable
recovery rate in the urine [3]: low

DHP-I susceptibility (DHP-I [4]): 0.12
SMILES: C[C@@H](O)[C@H]1C(=O)N2C(C(=O)O)=C(S[C@@H]3CN[C@H](C(=O)N(C)C)C3)[C@H](C)[C@H]12 [meropenem]
decomposition by / stability against DHP-I (renal dehydropeptidase I): stability against DHP-I substantially improved
antibacterial activities against highly methicillin resistant Staphylococcus aureus [5]: not adequate
Relative antibacterial potency, Meth-R. S. aureus (Meth-R. S. aureus): 3.15

MIC (S. aureus MB4970): 0.05 mg/L (≈ 0.126 µM)
MIC (S. aureus 209P NIHJ JC1): 0.025 mg/L (≈ 0.0632 µM)
MIC (S. aureus JS1): 0.78 mg/L (≈ 1.97 µM)
SMILES: C[C@@H](O)[C@H]1C(=O)N2C(C(=O)O)=C(S[C@@H]3CN[C@H](C4CC4C(N)=O)C3)[C@H](C)[C@H]12 (single isomer, unassigned) [Example 6]
Relative antibacterial potency, Meth-R. S. aureus (Meth-R. S. aureus): 5.41

SMILES: C[C@@H](O)[C@H]1C(=O)N2C(C(=O)O)=C(SCCN=CN)C[C@H]12 [imipenem]
treating effects against imipenem resistant Pseudomonas aeruginosa [6]: does not show adequate treating effects
antibacterial activities relative to thienamycin ([1]; various types of bacteria): equal or higher level than thienamycin
treating effects against imipenem-resistant highly methicillin resistant Staphylococcus aureus [7]: does not show adequate treating effects
decomposition by / stability against DHP-I (renal dehydropeptidase I; in words, background art): likely to be decomposed by DHP-I in the human kidney
chemical stability [2]: remarkably improved over thienamycin
β-lactamase resistance (β-lactamase): has β-lactamase resistance
Relative antibacterial potency, Meth-R. S. aureus (Meth-R. S. aureus): 2.57
toxicity against the kidney (kidney): presents toxicity against the kidney due to the decomposition products
DHP-I susceptibility (DHP-I [8]): 1.0
